Data on one molecule can be found in PMC5218480 (PLoS ONE, 2017).

This assay has as its system MV-4-11 cells. In words: Gene expression microarray analysis (Affymetrix PrimeView) and GSEA. Type of assay: cell-based, human. Also noted: RFU PODN (11730768_x_at) / Fold change /veh PODN (11730768_x_at) / RFU LINC00158 (11744669_a_at) / Fold change /veh LINC00158 (11744669_a_at) / RFU DUSP10 (11751237_a_at) / Fold change /veh DUSP10 (11751237_a_at) / RFU ID3 (11757404_x_at) / Fold change /veh ID3 (11757404_x_at) / RFU PLEKHG5 (11737974_s_at) / Fold change /veh PLEKHG5 (11737974_s_at) / RFU LRRC4B (11730491_at) / Fold change /veh LRRC4B (11730491_at) / RFU GIMAP4 (11747438_a_at) / Fold change /veh GIMAP4 (11747438_a_at) / RFU KRT8 (11758183_x_at) / Fold change /veh KRT8 (11758183_x_at) / RFU CNN1 (11734310_a_at) / Fold change /veh CNN1 (11734310_a_at) / RFU VPS37D (11726825_at) / Fold change /veh VPS37D (11726825_at) / RFU C10orf10 (11716522_x_at) / Fold change /veh C10orf10 (11716522_x_at) / RFU KIR2DL2 /// KIR2DL4 /// KIR2DL5A /// KIR2DL5B /// KIR2DS1 /// KIR2DS2 /// KIR2DS3 /// KIR2DS4 /// KIR3DL3 /// KIR3DL3 /// KIR3DS1 (11738374_at) / Fold change /veh KIR2DL2 /// KIR2DL4 /// KIR2DL5A /// KIR2DL5B /// KIR2DS1 /// KIR2DS2 /// KIR2DS3 /// KIR2DS4 /// KIR3DL3 /// KIR3DL3 /// KIR3DS1 (11738374_at) / RFU C1QL1 (11718748_at) / Fold change /veh C1QL1 (11718748_at) / RFU TMPRSS4 (11747572_a_at) / Fold change /veh TMPRSS4 (11747572_a_at) / RFU HAMP (11756126_x_at) / Fold change /veh HAMP (11756126_x_at) / RFU RNFT2 (11725882_a_at) / Fold change /veh RNFT2 (11725882_a_at) / RFU NR4A2 (11747474_a_at) / Fold change /veh NR4A2 (11747474_a_at) / RFU ABCC12 (11746883_a_at) / Fold change /veh ABCC12 (11746883_a_at) / RFU TMEM136 (11760407_x_at) / Fold change /veh TMEM136 (11760407_x_at) / RFU CLDN22 /// WWC2 (11732394_at) / Fold change /veh CLDN22 /// WWC2 (11732394_at) / RFU HLA-DPB1 (11760878_x_at) / Fold change /veh HLA-DPB1 (11760878_x_at) / RFU SPINT1 (11716480_a_at) / Fold change /veh SPINT1 (11716480_a_at) / RFU GAP43 (11754022_s_at) / Fold change /veh GAP43 (11754022_s_at) / RFU A4GNT (11735810_at) / Fold change /veh A4GNT (11735810_at) / RFU PRB3 (11715151_x_at) / Fold change /veh PRB3 (11715151_x_at) / RFU TUBB4B (11761932_at) / Fold change /veh TUBB4B (11761932_at) / RFU CAPN14 (11732068_a_at) / Fold change /veh CAPN14 (11732068_a_at) / RFU TMCC2 (11721928_a_at) / Fold change /veh TMCC2 (11721928_a_at) / RFU IRGQ (11745062_a_at) / Fold change /veh IRGQ (11745062_a_at) / RFU FAM174B (11720279_a_at) / Fold change /veh FAM174B (11720279_a_at) / RFU TMPRSS4 (11748680_a_at) / Fold change /veh TMPRSS4 (11748680_a_at) / RFU FAM212B (11763350_a_at) / Fold change /veh FAM212B (11763350_a_at) / RFU PLEKHG5 (11743358_a_at) / Fold change /veh PLEKHG5 (11743358_a_at) / RFU ZSCAN30 (11745921_a_at) / Fold change /veh ZSCAN30 (11745921_a_at) / RFU CMKLR1 (11741424_a_at) / Fold change /veh CMKLR1 (11741424_a_at) / RFU LOC101060620 /// MAPK8IP1 (11723275_at) / Fold change /veh LOC101060620 /// MAPK8IP1 (11723275_at) / RFU SPTSSB (11747773_x_at) / Fold change /veh SPTSSB (11747773_x_at) / RFU PRSS12 (11739890_at) / Fold change /veh PRSS12 (11739890_at) / RFU BIN1 (11741810_x_at) / Fold change /veh BIN1 (11741810_x_at) / RFU WNT11 (11732464_a_at) / Fold change /veh WNT11 (11732464_a_at) / RFU C10orf10 (11716521_a_at) / Fold change /veh C10orf10 (11716521_a_at) / RFU C5orf56 (11738089_at) / Fold change /veh C5orf56 (11738089_at) / RFU CYB561 (11721691_x_at) / Fold change /veh CYB561 (11721691_x_at) / RFU ANKRD19P (11752326_a_at) / Fold change /veh ANKRD19P (11752326_a_at) / RFU OR2T12 /// OR2T33 /// OR2T8 (11738714_s_at) / Fold change /veh OR2T12 /// OR2T33 /// OR2T8 (11738714_s_at) / RFU VCAN (11748164_a_at) / Fold change /veh VCAN (11748164_a_at) / RFU JSRP1 (11732532_at) / Fold change /veh JSRP1 (11732532_at) / RFU KRTAP10-11 (11738290_x_at) / Fold change /veh KRTAP10-11 (11738290_x_at) / RFU MYO3A (11730013_a_at) / Fold change /veh MYO3A (11730013_a_at) / RFU EBF3 (11725865_a_at) / Fold change /veh EBF3 (11725865_a_at) / RFU CAMK2N1 (11719241_x_at) / Fold change /veh CAMK2N1 (11719241_x_at) / RFU C5orf56 (11738088_a_at) / Fold change /veh C5orf56 (11738088_a_at) / RFU OLFML3 (11715873_a_at) / Fold change /veh OLFML3 (11715873_a_at) / RFU LOC100653217 /// NTM (11731650_a_at) / Fold change /veh LOC100653217 /// NTM (11731650_a_at) / RFU MAPK11 (11762145_a_at) / Fold change /veh MAPK11 (11762145_a_at) / RFU FIZ1 (11724087_x_at) / Fold change /veh FIZ1 (11724087_x_at) / RFU OASL (11726364_x_at) / Fold change /veh OASL (11726364_x_at) / RFU SOX15 (11748057_x_at) / Fold change /veh SOX15 (11748057_x_at) / RFU CD79A (11719716_a_at) / Fold change /veh CD79A (11719716_a_at) / RFU HIST1H1D (11736915_at) / Fold change /veh HIST1H1D (11736915_at) / RFU CASKIN2 (11723855_a_at) / Fold change /veh CASKIN2 (11723855_a_at) / RFU LOC730098 (11760151_x_at) / Fold change /veh LOC730098 (11760151_x_at) / RFU OR4N2 (11742367_at) / Fold change /veh OR4N2 (11742367_at) / RFU PRRT2 (11749266_a_at) / Fold change /veh PRRT2 (11749266_a_at) / RFU SNX32 (11753110_a_at) / Fold change /veh SNX32 (11753110_a_at) / RFU CDHR5 (11726645_a_at) / Fold change /veh CDHR5 (11726645_a_at) / RFU RCAN1 (11760418_a_at) / Fold change /veh RCAN1 (11760418_a_at) / RFU FAM167A (11723789_a_at) / Fold change /veh FAM167A (11723789_a_at) / RFU FAM26E (11764081_at) / Fold change /veh FAM26E (11764081_at) / RFU ISYNA1 (11749810_s_at) / Fold change /veh ISYNA1 (11749810_s_at) / RFU ACY1 (11761880_at) / Fold change /veh ACY1 (11761880_at) / RFU 11764098_at / Fold change /veh 11764098_at / RFU SAMD14 (11745864_x_at) / Fold change /veh SAMD14 (11745864_x_at) / RFU NPB (11741838_a_at) / Fold change /veh NPB (11741838_a_at) / RFU TMPRSS6 (11731388_a_at) / Fold change /veh TMPRSS6 (11731388_a_at) / RFU KRTAP10-2 (11738614_at) / Fold change /veh KRTAP10-2 (11738614_at) / RFU ARHGAP8 /// PRR5-ARHGAP8 (11727945_x_at) / Fold change /veh ARHGAP8 /// PRR5-ARHGAP8 (11727945_x_at) / RFU KRTAP5-7 /// NADSYN1 (11734609_at) / Fold change /veh KRTAP5-7 /// NADSYN1 (11734609_at) / RFU RASL12 (11751679_a_at) / Fold change /veh RASL12 (11751679_a_at) / RFU CDKN2B (11736163_a_at) / Fold change /veh CDKN2B (11736163_a_at) / RFU PRF1 (11729649_at) / Fold change /veh PRF1 (11729649_at) / RFU, ZNF638 /// ZNF638-IT1 / Fold change vs veh, ZNF638 /// ZNF638-IT1 / RFU, PANK3 / Fold change vs veh, PANK3 / RFU, SH3YL1 / Fold change vs veh, SH3YL1 / RFU, ZEB2 / Fold change vs veh, ZEB2 / RFU, NRIP1 / Fold change vs veh, NRIP1 / RFU, PTTG1IP / Fold change vs veh, PTTG1IP / RFU, CAPN2 / Fold change vs veh, CAPN2 / RFU, MED14 / Fold change vs veh, MED14 / RFU, SNORA58 / Fold change vs veh, SNORA58 / RFU, C1orf63 / Fold change vs veh, C1orf63 / RFU, LRRFIP1 / Fold change vs veh, LRRFIP1 / RFU, NDUFAF7 / Fold change vs veh, NDUFAF7 / RFU, SLC12A2 / Fold change vs veh, SLC12A2 / RFU, IBTK / Fold change vs veh, IBTK / RFU, ESF1 / Fold change vs veh, ESF1 / Fold change vs veh, TMEM50B / RFU, TAOK1 / Fold change vs veh, TAOK1 / RFU, ACBD3 / Fold change vs veh, ACBD3 / RFU, TMA16 / Fold change vs veh, TMA16 / RFU, RWDD3 / Fold change vs veh, RWDD3 / RFU, BCAT1 / Fold change vs veh, BCAT1 / RFU, EDEM3 / Fold change vs veh, EDEM3 / RFU, TMEM33 / Fold change vs veh, TMEM33 / RFU, WDR75 / Fold change vs veh, WDR75 / RFU, AHCTF1 / Fold change vs veh, AHCTF1 / RFU, TFRC / Fold change vs veh, TFRC / RFU, ZDHHC17 / Fold change vs veh, ZDHHC17 / RFU, NOM1 / Fold change vs veh, NOM1 / RFU, ARL8B / Fold change vs veh, ARL8B / RFU, ZBTB11 / Fold change vs veh, ZBTB11 / RFU, TAMM41 / Fold change vs veh, TAMM41 / RFU, KIAA1704 /// LOC100996395 / Fold change vs veh, KIAA1704 /// LOC100996395 / RFU, ING1 / Fold change vs veh, ING1 / RFU, TRMT61B / Fold change vs veh, TRMT61B / RFU, FUBP3 / Fold change vs veh, FUBP3 / RFU, TP53 / Fold change vs veh, TP53 / RFU, TNKS2 / Fold change vs veh, TNKS2 / RFU, ZFP14 / Fold change vs veh, ZFP14 / RFU, ACTR2 / Fold change vs veh, ACTR2 / RFU, PPP3R1 / Fold change vs veh, PPP3R1 / RFU, PIK3R1 / Fold change vs veh, PIK3R1 / RFU, HNRNPA1 / Fold change vs veh, HNRNPA1 / RFU, RNF170 / Fold change vs veh, RNF170 / RFU, ZNF28 / Fold change vs veh, ZNF28 / RFU, RNGTT / Fold change vs veh, RNGTT / RFU, OGT / Fold change vs veh, OGT / RFU, BRD1 / Fold change vs veh, BRD1 / RFU, MARS / Fold change vs veh, MARS / RFU, ZNF655 / Fold change vs veh, ZNF655 / RFU, FAHD1 / Fold change vs veh, FAHD1 / RFU, BDP1 / Fold change vs veh, BDP1 / RFU, LRRCC1 / Fold change vs veh, LRRCC1 / RFU, ARID1A / Fold change vs veh, ARID1A / RFU, ZNF146 / Fold change vs veh, ZNF146 / RFU, ZNF330 / Fold change vs veh, ZNF330 / RFU, GPN3 / Fold change vs veh, GPN3 / RFU, C9orf123 / Fold change vs veh, C9orf123 / RFU, N4BP2L2 / Fold change vs veh, N4BP2L2 / RFU, ARFIP1 / Fold change vs veh, ARFIP1 / RFU, FAM179B / Fold change vs veh, FAM179B / RFU, BCL10 / Fold change vs veh, BCL10 / RFU, UHRF1BP1L / Fold change vs veh, UHRF1BP1L / RFU, BET1 / Fold change vs veh, BET1 / RFU, CNOT2 / Fold change vs veh, CNOT2 / RFU, ZNF268 / Fold change vs veh, ZNF268 / Fold change vs veh, ZNF507 / RFU, DGCR2 / Fold change vs veh, DGCR2 / RFU, WDSUB1 / Fold change vs veh, WDSUB1 / Fold change vs veh, HSP90B1 /// MIR3652 / RFU, ADSS / Fold change vs veh, ADSS / RFU, GK / Fold change vs veh, GK / RFU, ZNF148 / Fold change vs veh, ZNF148 / RFU, TAF9 / Fold change vs veh, TAF9 / RFU, SLC1A5 / Fold change vs veh, SLC1A5 / RFU, SLMO2 / Fold change vs veh, SLMO2 / RFU, ABCC4 / Fold change vs veh, ABCC4 / RFU, LOC101060439 /// RAP1B / Fold change vs veh, LOC101060439 /// RAP1B / RFU, RFX7 / Fold change vs veh, RFX7 / RFU, GTPBP10 / Fold change vs veh, GTPBP10 / RFU, CNEP1R1 / Fold change vs veh, CNEP1R1 / RFU, BIVM-ERCC5 /// ERCC5 / Fold change vs veh, BIVM-ERCC5 /// ERCC5 / RFU, ILF3 / Fold change vs veh, ILF3 / RFU 11762660_at / Fold change /veh 11762660_at / RFU VCAN (11757783_s_at) / Fold change /veh VCAN (11757783_s_at) / RFU DDX43 (11728927_at) / Fold change /veh DDX43 (11728927_at) / RFU KRT8 (11758188_x_at) / Fold change /veh KRT8 (11758188_x_at) / RFU NKD1 (11759106_at) / Fold change /veh NKD1 (11759106_at) / RFU SRD5A1 (11742802_a_at) / Fold change /veh SRD5A1 (11742802_a_at) / RFU TPSAB1 /// TPSB2 (11721975_s_at) / Fold change /veh TPSAB1 /// TPSB2 (11721975_s_at) / RFU GSTM3 (11746129_a_at) / Fold change /veh GSTM3 (11746129_a_at) / RFU IL23R (11737362_x_at) / Fold change /veh IL23R (11737362_x_at) / RFU TMEM51 (11727254_a_at) / Fold change /veh TMEM51 (11727254_a_at) / RFU PIWIL2 (11732686_x_at) / Fold change /veh PIWIL2 (11732686_x_at) / RFU ORM1 (11744905_x_at) / Fold change /veh ORM1 (11744905_x_at) / RFU CCDC152 (11743942_at) / Fold change /veh CCDC152 (11743942_at) / RFU ECM1 (11717891_a_at) / Fold change /veh ECM1 (11717891_a_at) / RFU IL23R (11748794_a_at) / Fold change /veh IL23R (11748794_a_at) / RFU TNFAIP8L3 (11732012_x_at) / Fold change /veh TNFAIP8L3 (11732012_x_at) / RFU MBOAT4 (11741988_at) / Fold change /veh MBOAT4 (11741988_at) / RFU 11764193_at / Fold change /veh 11764193_at / RFU TMEM53 (11763286_at) / Fold change /veh TMEM53 (11763286_at) / RFU MAGEB2 (11727129_at) / Fold change /veh MAGEB2 (11727129_at) / RFU TMEM200A (11744735_a_at) / Fold change /veh TMEM200A (11744735_a_at) / RFU CCDC152 (11751479_a_at) / Fold change /veh CCDC152 (11751479_a_at) / RFU FAM211A (11726209_a_at) / Fold change /veh FAM211A (11726209_a_at) / RFU RGS16 (11746705_a_at) / Fold change /veh RGS16 (11746705_a_at) / RFU VCAN (11755009_s_at) / Fold change /veh VCAN (11755009_s_at) / RFU RHOB (11743442_s_at) / Fold change /veh RHOB (11743442_s_at) / RFU RGS16 (11720943_a_at) / Fold change /veh RGS16 (11720943_a_at) / RFU RGS16 (11720944_at) / Fold change /veh RGS16 (11720944_at) / RFU, VPS4B / Fold change vs veh, VPS4B / RFU, CREB1 / Fold change vs veh, CREB1 / RFU, DNAJC13 / Fold change vs veh, DNAJC13 / RFU, GNAQ / Fold change vs veh, GNAQ / RFU, CDK5R1 / Fold change vs veh, CDK5R1 / RFU, ZRANB3 / Fold change vs veh, ZRANB3 / RFU, CUL4A / Fold change vs veh, CUL4A / RFU, CCNY / Fold change vs veh, CCNY / RFU, UFL1 / Fold change vs veh, UFL1 / RFU, COG3 / Fold change vs veh, COG3 / RFU, DIAPH2 / Fold change vs veh, DIAPH2 / RFU, SKA2 / Fold change vs veh, SKA2 / RFU, AFF3 / Fold change vs veh, AFF3 / RFU, LMF1 / Fold change vs veh, LMF1 / RFU, IPO11 / Fold change vs veh, IPO11 / RFU, DFFB / Fold change vs veh, DFFB / RFU, FOXP1 / Fold change vs veh, FOXP1 / RFU, CARD8 / Fold change vs veh, CARD8 / RFU, STRN3 / Fold change vs veh, STRN3 / RFU, ADK / Fold change vs veh, ADK / RFU, RASSF2 / Fold change vs veh, RASSF2 / RFU, WIPF1 / Fold change vs veh, WIPF1 / RFU, LARP1B / Fold change vs veh, LARP1B / RFU, RASA1 / Fold change vs veh, RASA1 / RFU, RB1 / Fold change vs veh, RB1 / RFU, PPFIA1 / Fold change vs veh, PPFIA1 / RFU, MAT2A / Fold change vs veh, MAT2A / RFU, CCT5 / Fold change vs veh, CCT5 / RFU, WDR92 / Fold change vs veh, WDR92 / RFU, CUX1 / Fold change vs veh, CUX1 / RFU, TTC7A / Fold change vs veh, TTC7A / RFU, TMEM135 / Fold change vs veh, TMEM135 / RFU, DEPTOR / Fold change vs veh, DEPTOR / RFU, CPM / Fold change vs veh, CPM / RFU, DNAJB6 / Fold change vs veh, DNAJB6 / RFU, CACNA2D3 / Fold change vs veh, CACNA2D3 / RFU, DTX4 / Fold change vs veh, DTX4 / RFU, TFCP2 / Fold change vs veh, TFCP2 / RFU, GMCL1 /// GMCL1P1 / Fold change vs veh, GMCL1 /// GMCL1P1 / RFU, AEBP2 / Fold change vs veh, AEBP2 / RFU, SNHG1 /// SNORD22 /// SNORD25 /// SNORD26 /// SNORD27 /// SNORD28 /// SNORD29 /// SNORD31 / Fold change vs veh, SNHG1 /// SNORD22 /// SNORD25 /// SNORD26 /// SNORD27 /// SNORD28 /// SNORD29 /// SNORD31 / Fold change (Aza/veh), C12orf56 (ProbeSet 11735607_a_at) / Fold change (ACY-1035/veh), C12orf56 (ProbeSet 11735607_a_at) / Fold change (Aza/veh), FGFR1OP (ProbeSet 11751329_s_at) / Fold change (ACY-1035/veh), FGFR1OP (ProbeSet 11751329_s_at) / Fold change (Aza/veh), VPS36 (ProbeSet 11739960_a_at) / Fold change (ACY-1035/veh), VPS36 (ProbeSet 11739960_a_at) / RFU SYPL1 (11715823_x_at) / Fold change /veh SYPL1 (11715823_x_at) / RFU IGFBP7 (11715501_s_at) / Fold change /veh IGFBP7 (11715501_s_at) / RFU REEP3 (11722064_at) / Fold change /veh REEP3 (11722064_at) / RFU IGLL1 (11728026_x_at) / Fold change /veh IGLL1 (11728026_x_at): dose or concentration left out as unconfirmed. The following applies: ProbeSet 11743580_s_at; LIST B.

Consider `Nc1ncn([C@@H]2O[C@H](CO)[C@@H](O)[C@H]2O)c(=O)n1` [azacitidine], for which the “Fold change vs veh, ACTR2” value turned out to be 0.91.
